Data from US20220213082A1, “PRODRUG OF CASPASE INHIBITOR” (LG CHEM, LTD., priority 2019, published 2022).

Tested on: recombinant human carboxylesterases (CE1b, CE1c and CE2)
Test: Hydrolysis test by hydrolase (recombinant human carboxylesterases)
Format: in vitro ADME
Procedure: Various recombinant human carboxylesterases (CE1b, CE1c and CE2) were prepared in order to confirm the hydrolysis tendency of the prodrug by carboxylesterase (CE) which is a hydrolase. The initial enzyme concentration provided by the manufacturer was 5 mg/mL, which was diluted 1/50 in 100 mM potassium phosphate buffer to obtain a protein solution of 100 μg/mL. For the compound of Example 1—which is a prodrug compound to be tested, 5 mg/mL DMSO stock was used as a working solution, which was diluted 1/100 in acetonitrile to obtain 50 μg/mL concentration solution, and again diluted to a concentration of 1/100 in 100 mM potassium phosphate buffer to obtain a drug solution with a final concentration of 500 ng/mL. […] The samples were deproteinized with acetonitrile containing an internal standard (IS) and centrifuged, and the supernatant was injected into LC-MS/MS for analysis. By correcting the obtained peak area of the prodrug with the peak area of IS, the peak response at the time of collection of each sample was obtained, and the residual ratio (% remaining) compared to the initial value was converted. […]
Such result is analyzed that the compound of Example 1 was hydrolyzed by an esterase present in the reaction system and converted into a compound of Formula 2, which is the parent drug.

contribution of each human recombinant CE isozyme to hydrolysis into compound of Formula 2 (CE1b, CE1c, CE2 compared): greater by CE1b and CE1c than by CE2 | residual ratio (% remaining) of prodrug (spiked with human recombinant CE isozyme, after reaction for 60 minutes, LC-MS/MS): most of the prodrug was lost
SMILES: CC(=O)O[C@]1(CF)OC(=O)C[C@@H]1NC(=O)[C@]1(C(C)C)CC(c2nccc3ccccc23)=NO1 [Example 1, (2S,3S)-2-(fluoromethyl)-3-((R)-5-isopropyl-3-(isoquinolin-1-yl)-4,5-dihydroisoxazole-5-carboxamido)-5-oxotetrahydrofuran-2-yl acetate]
